The assay has as its system MV-4-11 cells. Nature of the assay: Gene expression microarray analysis (Affymetrix PrimeView) and GSEA. On the set-up: RFU PODN (11730768_x_at) / Fold change /veh PODN (11730768_x_at) / RFU LINC00158 (11744669_a_at) / Fold change /veh LINC00158 (11744669_a_at) / RFU DUSP10 (11751237_a_at) / Fold change /veh DUSP10 (11751237_a_at) / RFU ID3 (11757404_x_at) / Fold change /veh ID3 (11757404_x_at) / RFU PLEKHG5 (11737974_s_at) / Fold change /veh PLEKHG5 (11737974_s_at) / RFU LRRC4B (11730491_at) / Fold change /veh LRRC4B (11730491_at) / RFU GIMAP4 (11747438_a_at) / Fold change /veh GIMAP4 (11747438_a_at) / RFU KRT8 (11758183_x_at) / Fold change /veh KRT8 (11758183_x_at) / RFU CNN1 (11734310_a_at) / Fold change /veh CNN1 (11734310_a_at) / RFU VPS37D (11726825_at) / Fold change /veh VPS37D (11726825_at) / RFU C10orf10 (11716522_x_at) / Fold change /veh C10orf10 (11716522_x_at) / RFU KIR2DL2 /// KIR2DL4 /// KIR2DL5A /// KIR2DL5B /// KIR2DS1 /// KIR2DS2 /// KIR2DS3 /// KIR2DS4 /// KIR3DL3 /// KIR3DL3 /// KIR3DS1 (11738374_at) / Fold change /veh KIR2DL2 /// KIR2DL4 /// KIR2DL5A /// KIR2DL5B /// KIR2DS1 /// KIR2DS2 /// KIR2DS3 /// KIR2DS4 /// KIR3DL3 /// KIR3DL3 /// KIR3DS1 (11738374_at) / RFU C1QL1 (11718748_at) / Fold change /veh C1QL1 (11718748_at) / RFU TMPRSS4 (11747572_a_at) / Fold change /veh TMPRSS4 (11747572_a_at) / RFU HAMP (11756126_x_at) / Fold change /veh HAMP (11756126_x_at) / RFU RNFT2 (11725882_a_at) / Fold change /veh RNFT2 (11725882_a_at) / RFU NR4A2 (11747474_a_at) / Fold change /veh NR4A2 (11747474_a_at) / RFU ABCC12 (11746883_a_at) / Fold change /veh ABCC12 (11746883_a_at) / RFU TMEM136 (11760407_x_at) / Fold change /veh TMEM136 (11760407_x_at) / RFU CLDN22 /// WWC2 (11732394_at) / Fold change /veh CLDN22 /// WWC2 (11732394_at) / RFU HLA-DPB1 (11760878_x_at) / Fold change /veh HLA-DPB1 (11760878_x_at) / RFU SPINT1 (11716480_a_at) / Fold change /veh SPINT1 (11716480_a_at) / RFU GAP43 (11754022_s_at) / Fold change /veh GAP43 (11754022_s_at) / RFU A4GNT (11735810_at) / Fold change /veh A4GNT (11735810_at) / RFU PRB3 (11715151_x_at) / Fold change /veh PRB3 (11715151_x_at) / RFU TUBB4B (11761932_at) / Fold change /veh TUBB4B (11761932_at) / RFU CAPN14 (11732068_a_at) / Fold change /veh CAPN14 (11732068_a_at) / RFU TMCC2 (11721928_a_at) / Fold change /veh TMCC2 (11721928_a_at) / RFU IRGQ (11745062_a_at) / Fold change /veh IRGQ (11745062_a_at) / RFU FAM174B (11720279_a_at) / Fold change /veh FAM174B (11720279_a_at) / RFU TMPRSS4 (11748680_a_at) / Fold change /veh TMPRSS4 (11748680_a_at) / RFU FAM212B (11763350_a_at) / Fold change /veh FAM212B (11763350_a_at) / RFU PLEKHG5 (11743358_a_at) / Fold change /veh PLEKHG5 (11743358_a_at) / RFU ZSCAN30 (11745921_a_at) / Fold change /veh ZSCAN30 (11745921_a_at) / RFU CMKLR1 (11741424_a_at) / Fold change /veh CMKLR1 (11741424_a_at) / RFU LOC101060620 /// MAPK8IP1 (11723275_at) / Fold change /veh LOC101060620 /// MAPK8IP1 (11723275_at) / RFU SPTSSB (11747773_x_at) / Fold change /veh SPTSSB (11747773_x_at) / RFU PRSS12 (11739890_at) / Fold change /veh PRSS12 (11739890_at) / RFU BIN1 (11741810_x_at) / Fold change /veh BIN1 (11741810_x_at) / RFU WNT11 (11732464_a_at) / Fold change /veh WNT11 (11732464_a_at) / RFU C10orf10 (11716521_a_at) / Fold change /veh C10orf10 (11716521_a_at) / RFU C5orf56 (11738089_at) / Fold change /veh C5orf56 (11738089_at) / RFU CYB561 (11721691_x_at) / Fold change /veh CYB561 (11721691_x_at) / RFU ANKRD19P (11752326_a_at) / Fold change /veh ANKRD19P (11752326_a_at) / RFU OR2T12 /// OR2T33 /// OR2T8 (11738714_s_at) / Fold change /veh OR2T12 /// OR2T33 /// OR2T8 (11738714_s_at) / RFU VCAN (11748164_a_at) / Fold change /veh VCAN (11748164_a_at) / RFU JSRP1 (11732532_at) / Fold change /veh JSRP1 (11732532_at) / RFU KRTAP10-11 (11738290_x_at) / Fold change /veh KRTAP10-11 (11738290_x_at) / RFU MYO3A (11730013_a_at) / Fold change /veh MYO3A (11730013_a_at) / RFU EBF3 (11725865_a_at) / Fold change /veh EBF3 (11725865_a_at) / RFU CAMK2N1 (11719241_x_at) / Fold change /veh CAMK2N1 (11719241_x_at) / RFU C5orf56 (11738088_a_at) / Fold change /veh C5orf56 (11738088_a_at) / RFU OLFML3 (11715873_a_at) / Fold change /veh OLFML3 (11715873_a_at) / RFU LOC100653217 /// NTM (11731650_a_at) / Fold change /veh LOC100653217 /// NTM (11731650_a_at) / RFU MAPK11 (11762145_a_at) / Fold change /veh MAPK11 (11762145_a_at) / RFU FIZ1 (11724087_x_at) / Fold change /veh FIZ1 (11724087_x_at) / RFU OASL (11726364_x_at) / Fold change /veh OASL (11726364_x_at) / RFU SOX15 (11748057_x_at) / Fold change /veh SOX15 (11748057_x_at) / RFU CD79A (11719716_a_at) / Fold change /veh CD79A (11719716_a_at) / RFU HIST1H1D (11736915_at) / Fold change /veh HIST1H1D (11736915_at) / RFU CASKIN2 (11723855_a_at) / Fold change /veh CASKIN2 (11723855_a_at) / RFU LOC730098 (11760151_x_at) / Fold change /veh LOC730098 (11760151_x_at) / RFU OR4N2 (11742367_at) / Fold change /veh OR4N2 (11742367_at) / RFU PRRT2 (11749266_a_at) / Fold change /veh PRRT2 (11749266_a_at) / RFU SNX32 (11753110_a_at) / Fold change /veh SNX32 (11753110_a_at) / RFU CDHR5 (11726645_a_at) / Fold change /veh CDHR5 (11726645_a_at) / RFU RCAN1 (11760418_a_at) / Fold change /veh RCAN1 (11760418_a_at) / RFU FAM167A (11723789_a_at) / Fold change /veh FAM167A (11723789_a_at) / RFU FAM26E (11764081_at) / Fold change /veh FAM26E (11764081_at) / RFU ISYNA1 (11749810_s_at) / Fold change /veh ISYNA1 (11749810_s_at) / RFU ACY1 (11761880_at) / Fold change /veh ACY1 (11761880_at) / RFU 11764098_at / Fold change /veh 11764098_at / RFU SAMD14 (11745864_x_at) / Fold change /veh SAMD14 (11745864_x_at) / RFU NPB (11741838_a_at) / Fold change /veh NPB (11741838_a_at) / RFU TMPRSS6 (11731388_a_at) / Fold change /veh TMPRSS6 (11731388_a_at) / RFU KRTAP10-2 (11738614_at) / Fold change /veh KRTAP10-2 (11738614_at) / RFU ARHGAP8 /// PRR5-ARHGAP8 (11727945_x_at) / Fold change /veh ARHGAP8 /// PRR5-ARHGAP8 (11727945_x_at) / RFU KRTAP5-7 /// NADSYN1 (11734609_at) / Fold change /veh KRTAP5-7 /// NADSYN1 (11734609_at) / RFU RASL12 (11751679_a_at) / Fold change /veh RASL12 (11751679_a_at) / RFU CDKN2B (11736163_a_at) / Fold change /veh CDKN2B (11736163_a_at) / RFU PRF1 (11729649_at) / Fold change /veh PRF1 (11729649_at) / RFU, ZNF638 /// ZNF638-IT1 / Fold change vs veh, ZNF638 /// ZNF638-IT1 / RFU, PANK3 / Fold change vs veh, PANK3 / RFU, SH3YL1 / Fold change vs veh, SH3YL1 / RFU, ZEB2 / Fold change vs veh, ZEB2 / RFU, NRIP1 / Fold change vs veh, NRIP1 / RFU, PTTG1IP / Fold change vs veh, PTTG1IP / RFU, CAPN2 / Fold change vs veh, CAPN2 / RFU, MED14 / Fold change vs veh, MED14 / RFU, SNORA58 / Fold change vs veh, SNORA58 / RFU, C1orf63 / Fold change vs veh, C1orf63 / RFU, LRRFIP1 / Fold change vs veh, LRRFIP1 / RFU, NDUFAF7 / Fold change vs veh, NDUFAF7 / RFU, SLC12A2 / Fold change vs veh, SLC12A2 / RFU, IBTK / Fold change vs veh, IBTK / RFU, ESF1 / Fold change vs veh, ESF1 / Fold change vs veh, TMEM50B / RFU, TAOK1 / Fold change vs veh, TAOK1 / RFU, ACBD3 / Fold change vs veh, ACBD3 / RFU, TMA16 / Fold change vs veh, TMA16 / RFU, RWDD3 / Fold change vs veh, RWDD3 / RFU, BCAT1 / Fold change vs veh, BCAT1 / RFU, EDEM3 / Fold change vs veh, EDEM3 / RFU, TMEM33 / Fold change vs veh, TMEM33 / RFU, WDR75 / Fold change vs veh, WDR75 / RFU, AHCTF1 / Fold change vs veh, AHCTF1 / RFU, TFRC / Fold change vs veh, TFRC / RFU, ZDHHC17 / Fold change vs veh, ZDHHC17 / RFU, NOM1 / Fold change vs veh, NOM1 / RFU, ARL8B / Fold change vs veh, ARL8B / RFU, ZBTB11 / Fold change vs veh, ZBTB11 / RFU, TAMM41 / Fold change vs veh, TAMM41 / RFU, KIAA1704 /// LOC100996395 / Fold change vs veh, KIAA1704 /// LOC100996395 / RFU, ING1 / Fold change vs veh, ING1 / RFU, TRMT61B / Fold change vs veh, TRMT61B / RFU, FUBP3 / Fold change vs veh, FUBP3 / RFU, TP53 / Fold change vs veh, TP53 / RFU, TNKS2 / Fold change vs veh, TNKS2 / RFU, ZFP14 / Fold change vs veh, ZFP14 / RFU, ACTR2 / Fold change vs veh, ACTR2 / RFU, PPP3R1 / Fold change vs veh, PPP3R1 / RFU, PIK3R1 / Fold change vs veh, PIK3R1 / RFU, HNRNPA1 / Fold change vs veh, HNRNPA1 / RFU, RNF170 / Fold change vs veh, RNF170 / RFU, ZNF28 / Fold change vs veh, ZNF28 / RFU, RNGTT / Fold change vs veh, RNGTT / RFU, OGT / Fold change vs veh, OGT / RFU, BRD1 / Fold change vs veh, BRD1 / RFU, MARS / Fold change vs veh, MARS / RFU, ZNF655 / Fold change vs veh, ZNF655 / RFU, FAHD1 / Fold change vs veh, FAHD1 / RFU, BDP1 / Fold change vs veh, BDP1 / RFU, LRRCC1 / Fold change vs veh, LRRCC1 / RFU, ARID1A / Fold change vs veh, ARID1A / RFU, ZNF146 / Fold change vs veh, ZNF146 / RFU, ZNF330 / Fold change vs veh, ZNF330 / RFU, GPN3 / Fold change vs veh, GPN3 / RFU, C9orf123 / Fold change vs veh, C9orf123 / RFU, N4BP2L2 / Fold change vs veh, N4BP2L2 / RFU, ARFIP1 / Fold change vs veh, ARFIP1 / RFU, FAM179B / Fold change vs veh, FAM179B / RFU, BCL10 / Fold change vs veh, BCL10 / RFU, UHRF1BP1L / Fold change vs veh, UHRF1BP1L / RFU, BET1 / Fold change vs veh, BET1 / RFU, CNOT2 / Fold change vs veh, CNOT2 / RFU, ZNF268 / Fold change vs veh, ZNF268 / Fold change vs veh, ZNF507 / RFU, DGCR2 / Fold change vs veh, DGCR2 / RFU, WDSUB1 / Fold change vs veh, WDSUB1 / Fold change vs veh, HSP90B1 /// MIR3652 / RFU, ADSS / Fold change vs veh, ADSS / RFU, GK / Fold change vs veh, GK / RFU, ZNF148 / Fold change vs veh, ZNF148 / RFU, TAF9 / Fold change vs veh, TAF9 / RFU, SLC1A5 / Fold change vs veh, SLC1A5 / RFU, SLMO2 / Fold change vs veh, SLMO2 / RFU, ABCC4 / Fold change vs veh, ABCC4 / RFU, LOC101060439 /// RAP1B / Fold change vs veh, LOC101060439 /// RAP1B / RFU, RFX7 / Fold change vs veh, RFX7 / RFU, GTPBP10 / Fold change vs veh, GTPBP10 / RFU, CNEP1R1 / Fold change vs veh, CNEP1R1 / RFU, BIVM-ERCC5 /// ERCC5 / Fold change vs veh, BIVM-ERCC5 /// ERCC5 / RFU, ILF3 / Fold change vs veh, ILF3 / RFU 11762660_at / Fold change /veh 11762660_at / RFU VCAN (11757783_s_at) / Fold change /veh VCAN (11757783_s_at) / RFU DDX43 (11728927_at) / Fold change /veh DDX43 (11728927_at) / RFU KRT8 (11758188_x_at) / Fold change /veh KRT8 (11758188_x_at) / RFU NKD1 (11759106_at) / Fold change /veh NKD1 (11759106_at) / RFU SRD5A1 (11742802_a_at) / Fold change /veh SRD5A1 (11742802_a_at) / RFU TPSAB1 /// TPSB2 (11721975_s_at) / Fold change /veh TPSAB1 /// TPSB2 (11721975_s_at) / RFU GSTM3 (11746129_a_at) / Fold change /veh GSTM3 (11746129_a_at) / RFU IL23R (11737362_x_at) / Fold change /veh IL23R (11737362_x_at) / RFU TMEM51 (11727254_a_at) / Fold change /veh TMEM51 (11727254_a_at) / RFU PIWIL2 (11732686_x_at) / Fold change /veh PIWIL2 (11732686_x_at) / RFU ORM1 (11744905_x_at) / Fold change /veh ORM1 (11744905_x_at) / RFU CCDC152 (11743942_at) / Fold change /veh CCDC152 (11743942_at) / RFU ECM1 (11717891_a_at) / Fold change /veh ECM1 (11717891_a_at) / RFU IL23R (11748794_a_at) / Fold change /veh IL23R (11748794_a_at) / RFU TNFAIP8L3 (11732012_x_at) / Fold change /veh TNFAIP8L3 (11732012_x_at) / RFU MBOAT4 (11741988_at) / Fold change /veh MBOAT4 (11741988_at) / RFU 11764193_at / Fold change /veh 11764193_at / RFU TMEM53 (11763286_at) / Fold change /veh TMEM53 (11763286_at) / RFU MAGEB2 (11727129_at) / Fold change /veh MAGEB2 (11727129_at) / RFU TMEM200A (11744735_a_at) / Fold change /veh TMEM200A (11744735_a_at) / RFU CCDC152 (11751479_a_at) / Fold change /veh CCDC152 (11751479_a_at) / RFU FAM211A (11726209_a_at) / Fold change /veh FAM211A (11726209_a_at) / RFU RGS16 (11746705_a_at) / Fold change /veh RGS16 (11746705_a_at) / RFU VCAN (11755009_s_at) / Fold change /veh VCAN (11755009_s_at) / RFU RHOB (11743442_s_at) / Fold change /veh RHOB (11743442_s_at) / RFU RGS16 (11720943_a_at) / Fold change /veh RGS16 (11720943_a_at) / RFU RGS16 (11720944_at) / Fold change /veh RGS16 (11720944_at) / RFU, VPS4B / Fold change vs veh, VPS4B / RFU, CREB1 / Fold change vs veh, CREB1 / RFU, DNAJC13 / Fold change vs veh, DNAJC13 / RFU, GNAQ / Fold change vs veh, GNAQ / RFU, CDK5R1 / Fold change vs veh, CDK5R1 / RFU, ZRANB3 / Fold change vs veh, ZRANB3 / RFU, CUL4A / Fold change vs veh, CUL4A / RFU, CCNY / Fold change vs veh, CCNY / RFU, UFL1 / Fold change vs veh, UFL1 / RFU, COG3 / Fold change vs veh, COG3 / RFU, DIAPH2 / Fold change vs veh, DIAPH2 / RFU, SKA2 / Fold change vs veh, SKA2 / RFU, AFF3 / Fold change vs veh, AFF3 / RFU, LMF1 / Fold change vs veh, LMF1 / RFU, IPO11 / Fold change vs veh, IPO11 / RFU, DFFB / Fold change vs veh, DFFB / RFU, FOXP1 / Fold change vs veh, FOXP1 / RFU, CARD8 / Fold change vs veh, CARD8 / RFU, STRN3 / Fold change vs veh, STRN3 / RFU, ADK / Fold change vs veh, ADK / RFU, RASSF2 / Fold change vs veh, RASSF2 / RFU, WIPF1 / Fold change vs veh, WIPF1 / RFU, LARP1B / Fold change vs veh, LARP1B / RFU, RASA1 / Fold change vs veh, RASA1 / RFU, RB1 / Fold change vs veh, RB1 / RFU, PPFIA1 / Fold change vs veh, PPFIA1 / RFU, MAT2A / Fold change vs veh, MAT2A / RFU, CCT5 / Fold change vs veh, CCT5 / RFU, WDR92 / Fold change vs veh, WDR92 / RFU, CUX1 / Fold change vs veh, CUX1 / RFU, TTC7A / Fold change vs veh, TTC7A / RFU, TMEM135 / Fold change vs veh, TMEM135 / RFU, DEPTOR / Fold change vs veh, DEPTOR / RFU, CPM / Fold change vs veh, CPM / RFU, DNAJB6 / Fold change vs veh, DNAJB6 / RFU, CACNA2D3 / Fold change vs veh, CACNA2D3 / RFU, DTX4 / Fold change vs veh, DTX4 / RFU, TFCP2 / Fold change vs veh, TFCP2 / RFU, GMCL1 /// GMCL1P1 / Fold change vs veh, GMCL1 /// GMCL1P1 / RFU, AEBP2 / Fold change vs veh, AEBP2 / RFU, SNHG1 /// SNORD22 /// SNORD25 /// SNORD26 /// SNORD27 /// SNORD28 /// SNORD29 /// SNORD31 / Fold change vs veh, SNHG1 /// SNORD22 /// SNORD25 /// SNORD26 /// SNORD27 /// SNORD28 /// SNORD29 /// SNORD31 / Fold change (Aza/veh), C12orf56 (ProbeSet 11735607_a_at) / Fold change (ACY-1035/veh), C12orf56 (ProbeSet 11735607_a_at) / Fold change (Aza/veh), FGFR1OP (ProbeSet 11751329_s_at) / Fold change (ACY-1035/veh), FGFR1OP (ProbeSet 11751329_s_at) / Fold change (Aza/veh), VPS36 (ProbeSet 11739960_a_at) / Fold change (ACY-1035/veh), VPS36 (ProbeSet 11739960_a_at) / RFU SYPL1 (11715823_x_at) / Fold change /veh SYPL1 (11715823_x_at) / RFU IGFBP7 (11715501_s_at) / Fold change /veh IGFBP7 (11715501_s_at) / RFU REEP3 (11722064_at) / Fold change /veh REEP3 (11722064_at) / RFU IGLL1 (11728026_x_at) / Fold change /veh IGLL1 (11728026_x_at): dose or concentration left out as unconfirmed. The following applies: MV-4-11 cells, 48 hours. The class given is cell-based, human.

Structures are written as SMILES.

As to `Nc1ccc(-c2cccs2)cc1NC(=O)c1ccc2c(c1)cc(C1CC1)n2CCN1CCOCC1` [ACY-1035], the “Fold change /veh TMEM51 (11727254_a_at)” value amounted to 0.98.

These data come from paper PMC5218480 (PLoS ONE, 2017).
